PubChem BioAssay (NCI)
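A five-concentration, 48-hour dose response in 96-well plates underlies each endpoint, interpolated linearly between surrounding concentrations. GI50 marks 50% less growth. TGI is the concentration that stops growth completely.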

How the values were obtained:
Experiment in all cases: NCI tumour cell line growth inhibition, 48 h
DMS 273 small cell lung = tested on: DMS 273 small cell lung
RXF-631 renal = tested on: RXF-631 renal
XF 498 CNS = tested on: XF 498 CNS
KM20L2 colon = tested on: KM20L2 colon
DLD-1 colon = tested on: DLD-1 colon
LXFL 529 NSCLC = tested on: LXFL 529 NSCLC
HOP-18 NSCLC = tested on: HOP-18 NSCLC
M19-MEL melanoma = tested on: M19-MEL melanoma
MDA-N = tested on: MDA-N
SN12K1 renal = tested on: SN12K1 renal
P388/ADR leukemia = tested on: P388/ADR leukemia
P388 leukemia = tested on: P388 leukemia

Compound | TGI (DMS 273 small cell lung) [µM] | TGI (RXF-631 renal) [µM] | TGI (XF 498 CNS) [µM] | TGI (KM20L2 colon) [µM] | TGI (DLD-1 colon) [µM] | TGI (LXFL 529 NSCLC) [µM] | TGI (HOP-18 NSCLC) [µM] | TGI (M19-MEL melanoma) [µM] | TGI (MDA-N) [µM] | also measured
Cn1ncc2c(=O)[nH]c(-c3ccccc3)nc21 | > 100 | > 100 | > 100 | > 100 | > 100 | – | – | – | – | –
CCc1cc(C)cc2[n+]1CC=C2C | > 100 | – | – | > 100 | > 100 | > 100 | 9.88 | > 100 | – | –
N=C(N)SC(c1ccccc1)c1ccccc1 | – | – | – | – | – | – | – | – | 26.5 | –
O=C1CC(c2ccccc2)NCCCCN2CC(CN1)C(C(O)c1ccccc1)C2=O (stereo not given) | – | – | – | – | – | – | – | – | > 100 | –
NS(=O)(=O)c1ccc(C(=O)O)cc1 | – | – | – | – | – | – | – | – | > 100 | –
Cc1cccc(NC(N)=S)c1 | – | > 100 | > 100 | – | > 100 | > 100 | – | > 100 | – | –
CC(C)(c1ccccc1)c1ccc(Oc2ccc3c(c2)-c2nc-3nc3[nH]c(nc4nc(nc5[nH]c(n2)c2ccc(Oc6ccc(C(C)(C)c7ccccc7)cc6)cc52)-c2cc(Oc5ccc(C(C)(C)c6ccccc6)cc5)ccc2-4)c2ccc(Oc4ccc(C(C)(C)c5ccccc5)cc4)cc32)cc1 | > 100 | > 100 | > 100 | > 100 | > 100 | > 100 | – | > 100 | – | –
Nc1ccc([As](=O)(O)O)cc1 | – | – | – | – | – | – | – | – | > 100 | –
Cc1nc2ccccc2c(=O)n1Nc1ccc(C(=O)O)cc1 | > 100 | – | > 100 | > 100 | > 100 | – | > 100 | > 100 | – | TGI (SN12K1 renal): > 100 µM; TGI (P388/ADR leukemia): > 100 µM; TGI (P388 leukemia): > 100 µM
CN(C)C=O.CN(C)C=O.CN1C(C(=O)Nc2ccccn2)=C([O-])c2ccccc2S1(=O)=O.CN1C(C(=O)Nc2ccccn2)=C([O-])c2ccccc2S1(=O)=O.[Cu+2] | > 100 | > 100 | 34.4 | > 100 | – | > 100 | > 100 | > 100 | – | GI50 (DMS 273 small cell lung): 35.9 µM; GI50 (RXF-631 renal): 87.4 µM; GI50 (LXFL 529 NSCLC): 27.8 µM; GI50 (HOP-18 NSCLC): > 100 µM; GI50 (XF 498 CNS): 18.8 µM; GI50 (KM20L2 colon): > 100 µM; GI50 (M19-MEL melanoma): 31 µM
